According to ChEMBL document CHEMBL1201862, “PubChem BioAssay data set” (2004):
Active and inactive are the calls of the source.

How the values were obtained:
[1] = HepG2 cell cytotoxicity, dose response, cytotoxicity control for non-replicating M. tuberculosis project (AID 489018); assay type: functional; conditions: Mycobacterium tuberculosis
[2] = inhibitors of intracellular T. cruzi replication, confirmation, NIH3T3 host cells, beta-gal luminescence (AID 2044); assay type: functional, cell-based;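 also: intracellular parasites grown in NIH/3T3 mouse fibroblasts as host cells; luminescent beta-galactosidase reporter signal from transgenic T. cruzi replicating inside host cells; inhibitors lower the luminescence signal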
Beta-galactosidase = Beta-galactosidase (Escherichia coli, UniProt Q8VNN2); assay type: functional
[3] = control 3'UTR Renilla luciferase suppression, dose response, counter-screen for Shn3 inhibitor project, cell-based, Clone20-Shn3RL, cherry-picked (AID 624133); assay type: functional
Mu-type opioid receptor = Mu-type opioid receptor (Homo sapiens, UniProt P35372); experiment: HTS Image-Based Screen for Agonists of the MOR Receptor. [Related pubchem assays (depositor defined):AID1777, AID1785, AID1786, AID2133]; assay type: functional;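 also: imaging of beta-arrestin GFP recruitment into spots after receptor activation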
[4] = cytotoxicity toward NIH3T3 fibroblasts, dose response, counter-screen, cell-based, ATP luminescence, mouse fibroblasts (AID 2010); assay type: functional;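 also: cells exposed to compound for about 90 hours before reading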
[5] = target: T1, Delta-type opioid receptor (Homo sapiens, UniProt P41143); experiment: HTS Image-Based Screen for Agonists of the DOR Receptor. [Related pubchem assays (depositor defined):AID1777, AID1786, AID2133]; assay type: functional
[6] = target: T2, Microphthalmia-associated transcription factor (Homo sapiens, UniProt O75030); experiment: TRPM1 promoter luciferase signal decrease, dose response, MITF inhibitor project, cell-based, SK-MEL-5, cherry-picked, set 3 (AID 493073); assay type: functional
T2 sequence (O75030 whole entry): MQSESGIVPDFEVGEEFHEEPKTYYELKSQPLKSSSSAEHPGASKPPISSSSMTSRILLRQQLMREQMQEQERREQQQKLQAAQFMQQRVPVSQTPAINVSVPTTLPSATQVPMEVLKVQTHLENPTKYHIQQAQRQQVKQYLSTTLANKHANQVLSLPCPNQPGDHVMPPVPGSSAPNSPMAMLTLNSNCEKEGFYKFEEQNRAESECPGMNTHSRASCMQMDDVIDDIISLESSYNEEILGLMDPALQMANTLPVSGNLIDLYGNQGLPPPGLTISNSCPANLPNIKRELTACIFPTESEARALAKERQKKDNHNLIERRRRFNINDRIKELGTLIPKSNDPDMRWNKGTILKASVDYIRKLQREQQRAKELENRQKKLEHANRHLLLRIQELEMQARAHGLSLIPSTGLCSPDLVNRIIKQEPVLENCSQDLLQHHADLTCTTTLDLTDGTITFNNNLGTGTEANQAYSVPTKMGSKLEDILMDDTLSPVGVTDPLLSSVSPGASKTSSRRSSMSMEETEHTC

[7] = Vero E6 cell cytotoxicity, dose response, cytotoxicity control for non-replicating M. tuberculosis project, secondary assay (AID 492998); assay type: functional, VeroE6; conditions: Vero C1008
[8] = target: T1, Delta-type opioid receptor; experiment: HTS Image-Based Screen for Antagonists of the DOR Receptor. [Related pubchem assays (depositor defined):AID1777, AID1785, AID1786, AID2133]; assay type: functional
[9] = target: T3, Kappa-type opioid receptor (Homo sapiens, UniProt P41145); assay type: functional
[10] = target: T3, Kappa-type opioid receptor; assay type: functional; remark: listed apart in the source
cells = assay type: functional
[11] = THP-1 cell cytotoxicity, dose response, cytotoxicity control for non-replicating M. tuberculosis project (AID 489025); assay type: functional
CHO = experiment: cytotoxicity in TLR9-MyD88 CHO cells, dose response, cytotoxicity control for TLR9-MyD88 binding inhibitor project, cell-based, luminescence (AID 588339); assay type: functional, hamster; conditions: Cricetulus griseus;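 also: CHO cells stably coexpressing TLR9 and MyD88 fusions from primary screen; compound exposure lasted 48 hours before viability readout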
Fatty acid synthase [12] = target: T4, Fatty acid synthase (Homo sapiens, UniProt P49327); experiment: FAS thioesterase domain inhibitors, dose response, biochemical, endpoint fluorescence intensity, uHTS hits (AID 624327); assay type: functional;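 also: fluorescence from hydrolysis of an O-methyl fluorescein acyl ester substrate by the enzyme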
[13] = Shn3 3'UTR reporter inhibitors, dose response, cell-based, Clone20 osteoblasts, firefly luciferase, cherry-picked (AID 624132); assay type: functional;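 also: firefly luciferase luminescence from reporter carrying the Shn3 3'UTR in osteoblasts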
[14] = growth suppression of beta-catenin-knockout colon cells, dose response, cell-based, HCT116, human colon tumor (AID 1045); assay type: functional;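 also: HCT116 colon tumor cells with beta catenin knocked out; cells exposed to compound for 60 hours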
Fatty acid synthase [15] = target: T4, Fatty acid synthase; experiment: FAS thioesterase domain inhibitors, dose response, biochemical, kinetic fluorescence intensity (AID 624326); assay type: functional;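 also: rate of fluorescence rise from hydrolysis of a fluorogenic O-methyl fluorescein ester substrate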
[16] = target: T5, Bifunctional protein GlmU (Mycobacterium tuberculosis, UniProt P9WMN3); experiment: Inhibitors of Mycobacterial Glucosamine-1-phosphate acetyl transferase (GlmU). Secondary screen.; parameters: species or system Mycobacterium tuberculosis H37Rv
T5 sequence (P9WMN3 whole entry): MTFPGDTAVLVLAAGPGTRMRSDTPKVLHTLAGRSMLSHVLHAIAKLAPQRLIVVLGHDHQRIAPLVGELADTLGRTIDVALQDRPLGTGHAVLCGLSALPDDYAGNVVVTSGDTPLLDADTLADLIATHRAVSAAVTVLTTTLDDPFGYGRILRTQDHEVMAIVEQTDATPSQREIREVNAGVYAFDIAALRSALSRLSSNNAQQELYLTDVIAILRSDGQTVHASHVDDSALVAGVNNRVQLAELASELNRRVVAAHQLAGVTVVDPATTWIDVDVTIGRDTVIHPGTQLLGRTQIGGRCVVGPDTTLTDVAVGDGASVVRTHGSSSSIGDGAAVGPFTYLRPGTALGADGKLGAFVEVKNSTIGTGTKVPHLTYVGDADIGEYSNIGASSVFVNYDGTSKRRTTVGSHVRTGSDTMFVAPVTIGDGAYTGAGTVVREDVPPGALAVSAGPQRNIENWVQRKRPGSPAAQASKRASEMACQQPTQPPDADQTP

[17] = HepG2 cell cytotoxicity, dose response, cytotoxicity control for Shn3 inhibitor project, CellTiter-Glo, cherry-picked (AID 624134); assay type: functional, cell-based
Beta Lactamase = Beta Lactamase (Pseudomonas aeruginosa, UniProt Q932Y6); experiment: beta-lactamase reporter inhibitor potency, dose response, artefact control for TLR9-MyD88 binding inhibitor project, BLA reporter cells, FRET fluorescence (AID 588341); assay type: cell-based;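 also: cell based assay in CHO-K1 cells stably expressing beta-lactamase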
[18] = growth suppression of PTEN-null colon cells, dose response, cell-based, HCT116 PTEN knockout (AID 1047); assay type: functional;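 also: HCT116 colon tumor cells with PTEN knocked out; cells exposed to compound for 60 hours before readout; potency for loss of cell viability measured by luminescence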
[19] = target: T6, Sentrin-specific protease 8 (Homo sapiens, UniProt Q96LD8); experiment: SENP8 protease inhibitors, SAR follow-up, biochemical, luminescence (AID 504501); assay type: functional
T6 sequence (Q96LD8 whole entry): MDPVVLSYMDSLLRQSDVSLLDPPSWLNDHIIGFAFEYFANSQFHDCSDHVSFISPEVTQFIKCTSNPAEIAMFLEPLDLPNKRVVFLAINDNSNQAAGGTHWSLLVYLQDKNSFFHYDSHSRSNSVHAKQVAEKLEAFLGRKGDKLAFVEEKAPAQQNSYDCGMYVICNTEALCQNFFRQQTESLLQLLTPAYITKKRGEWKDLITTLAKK

[20] = target: T7, Sentrin-specific protease 7 (Homo sapiens, UniProt Q9BQF6); experiment: SENP7 protease inhibitors, SAR follow-up, biochemical, luminescence (AID 504497); assay type: functional
T7 sequence (Q9BQF6 whole entry): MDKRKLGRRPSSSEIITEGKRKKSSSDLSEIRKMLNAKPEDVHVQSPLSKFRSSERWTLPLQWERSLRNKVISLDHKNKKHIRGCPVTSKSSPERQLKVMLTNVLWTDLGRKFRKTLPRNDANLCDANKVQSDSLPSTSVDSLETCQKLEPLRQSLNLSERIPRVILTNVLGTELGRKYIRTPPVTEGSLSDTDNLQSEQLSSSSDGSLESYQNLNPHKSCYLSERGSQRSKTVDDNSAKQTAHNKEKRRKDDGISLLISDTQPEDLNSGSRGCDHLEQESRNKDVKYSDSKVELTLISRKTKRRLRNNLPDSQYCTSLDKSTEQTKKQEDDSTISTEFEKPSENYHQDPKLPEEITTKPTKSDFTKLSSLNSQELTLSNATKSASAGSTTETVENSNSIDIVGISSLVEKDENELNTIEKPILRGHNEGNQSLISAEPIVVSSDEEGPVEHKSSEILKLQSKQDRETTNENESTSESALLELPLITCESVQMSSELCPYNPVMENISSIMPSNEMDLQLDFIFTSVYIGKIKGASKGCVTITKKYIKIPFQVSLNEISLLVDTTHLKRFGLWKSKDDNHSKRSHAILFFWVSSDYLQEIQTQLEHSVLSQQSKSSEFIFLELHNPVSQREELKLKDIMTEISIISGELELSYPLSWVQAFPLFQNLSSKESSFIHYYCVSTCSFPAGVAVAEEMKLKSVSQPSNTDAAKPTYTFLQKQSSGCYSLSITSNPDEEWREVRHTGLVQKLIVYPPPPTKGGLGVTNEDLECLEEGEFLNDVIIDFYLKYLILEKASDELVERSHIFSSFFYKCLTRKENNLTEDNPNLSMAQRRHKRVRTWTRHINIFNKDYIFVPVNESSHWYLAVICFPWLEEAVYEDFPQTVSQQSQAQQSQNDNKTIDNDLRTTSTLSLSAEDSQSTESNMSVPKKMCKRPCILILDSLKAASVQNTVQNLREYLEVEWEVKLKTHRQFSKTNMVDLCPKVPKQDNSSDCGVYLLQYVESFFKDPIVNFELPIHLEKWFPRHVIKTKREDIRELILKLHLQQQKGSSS

[21] = target: T8, Sentrin-specific protease 6 (Homo sapiens, UniProt Q9GZR1); experiment: SAR Analysis of small molecule inhibitors of Sentrin-specific protease 6 (SENP6) using a Luminescent assay. [Related pubchem assays (depositor defined):AID2582, AID2599]; assay type: functional
T8 sequence (Q9GZR1 whole entry): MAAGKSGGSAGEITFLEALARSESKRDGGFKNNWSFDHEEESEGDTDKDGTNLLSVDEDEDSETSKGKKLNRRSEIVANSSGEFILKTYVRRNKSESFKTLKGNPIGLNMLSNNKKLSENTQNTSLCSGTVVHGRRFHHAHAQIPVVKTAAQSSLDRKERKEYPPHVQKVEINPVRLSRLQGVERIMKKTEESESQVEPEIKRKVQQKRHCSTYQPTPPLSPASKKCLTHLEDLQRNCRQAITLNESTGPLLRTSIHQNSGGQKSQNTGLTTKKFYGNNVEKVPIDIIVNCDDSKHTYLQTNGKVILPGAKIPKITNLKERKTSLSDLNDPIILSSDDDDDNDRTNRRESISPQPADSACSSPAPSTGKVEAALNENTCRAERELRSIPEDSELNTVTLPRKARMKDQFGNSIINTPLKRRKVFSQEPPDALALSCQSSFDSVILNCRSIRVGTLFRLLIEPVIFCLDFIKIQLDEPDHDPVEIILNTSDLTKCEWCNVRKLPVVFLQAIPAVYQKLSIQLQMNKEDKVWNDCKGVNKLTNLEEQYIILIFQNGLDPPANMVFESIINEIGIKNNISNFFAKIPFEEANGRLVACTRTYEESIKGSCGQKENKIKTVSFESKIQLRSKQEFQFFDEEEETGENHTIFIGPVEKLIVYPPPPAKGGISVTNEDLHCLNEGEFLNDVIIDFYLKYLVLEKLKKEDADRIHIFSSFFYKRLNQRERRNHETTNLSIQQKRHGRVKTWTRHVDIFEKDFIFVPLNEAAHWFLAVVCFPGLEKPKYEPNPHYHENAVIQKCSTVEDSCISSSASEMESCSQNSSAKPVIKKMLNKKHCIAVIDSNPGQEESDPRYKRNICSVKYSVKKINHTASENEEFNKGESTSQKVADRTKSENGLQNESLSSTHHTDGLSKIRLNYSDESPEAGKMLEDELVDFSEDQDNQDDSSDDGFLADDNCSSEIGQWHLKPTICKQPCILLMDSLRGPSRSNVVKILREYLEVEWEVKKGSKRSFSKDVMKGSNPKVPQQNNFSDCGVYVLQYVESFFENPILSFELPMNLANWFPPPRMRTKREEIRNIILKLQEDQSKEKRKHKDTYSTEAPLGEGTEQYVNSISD

Caspase-3 = target: T9, Caspase-3 (Homo sapiens, UniProt P42574); experiment: SAR Analysis of small molecule inhibitors of Sentrin-specific proteases (SENPs) using a Caspase-3 Selectivity assay. [Related pubchem assays (depositor defined):AID2540, AID2599, AID434973, AID489001]; assay type: functional
T9 sequence (P42574 whole entry): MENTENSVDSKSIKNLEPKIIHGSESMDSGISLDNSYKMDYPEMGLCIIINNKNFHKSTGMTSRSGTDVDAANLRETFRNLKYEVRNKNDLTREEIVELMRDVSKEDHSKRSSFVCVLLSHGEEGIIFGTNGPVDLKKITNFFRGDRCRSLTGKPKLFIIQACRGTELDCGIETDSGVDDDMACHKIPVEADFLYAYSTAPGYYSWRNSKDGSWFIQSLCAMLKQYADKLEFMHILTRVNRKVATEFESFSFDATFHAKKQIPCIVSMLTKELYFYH

T1 sequence (P41143 whole entry): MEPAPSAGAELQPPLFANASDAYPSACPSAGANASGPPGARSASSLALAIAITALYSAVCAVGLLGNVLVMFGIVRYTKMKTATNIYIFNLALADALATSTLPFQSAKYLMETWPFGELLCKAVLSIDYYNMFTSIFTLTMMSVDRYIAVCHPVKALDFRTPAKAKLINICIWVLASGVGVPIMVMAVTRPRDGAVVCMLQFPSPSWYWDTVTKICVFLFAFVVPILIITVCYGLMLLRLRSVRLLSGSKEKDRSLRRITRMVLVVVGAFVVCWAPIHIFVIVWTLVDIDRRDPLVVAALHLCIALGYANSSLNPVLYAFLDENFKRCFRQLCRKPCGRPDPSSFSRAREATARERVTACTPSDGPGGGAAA
T4 sequence (P49327 whole entry, the tested form may be a part): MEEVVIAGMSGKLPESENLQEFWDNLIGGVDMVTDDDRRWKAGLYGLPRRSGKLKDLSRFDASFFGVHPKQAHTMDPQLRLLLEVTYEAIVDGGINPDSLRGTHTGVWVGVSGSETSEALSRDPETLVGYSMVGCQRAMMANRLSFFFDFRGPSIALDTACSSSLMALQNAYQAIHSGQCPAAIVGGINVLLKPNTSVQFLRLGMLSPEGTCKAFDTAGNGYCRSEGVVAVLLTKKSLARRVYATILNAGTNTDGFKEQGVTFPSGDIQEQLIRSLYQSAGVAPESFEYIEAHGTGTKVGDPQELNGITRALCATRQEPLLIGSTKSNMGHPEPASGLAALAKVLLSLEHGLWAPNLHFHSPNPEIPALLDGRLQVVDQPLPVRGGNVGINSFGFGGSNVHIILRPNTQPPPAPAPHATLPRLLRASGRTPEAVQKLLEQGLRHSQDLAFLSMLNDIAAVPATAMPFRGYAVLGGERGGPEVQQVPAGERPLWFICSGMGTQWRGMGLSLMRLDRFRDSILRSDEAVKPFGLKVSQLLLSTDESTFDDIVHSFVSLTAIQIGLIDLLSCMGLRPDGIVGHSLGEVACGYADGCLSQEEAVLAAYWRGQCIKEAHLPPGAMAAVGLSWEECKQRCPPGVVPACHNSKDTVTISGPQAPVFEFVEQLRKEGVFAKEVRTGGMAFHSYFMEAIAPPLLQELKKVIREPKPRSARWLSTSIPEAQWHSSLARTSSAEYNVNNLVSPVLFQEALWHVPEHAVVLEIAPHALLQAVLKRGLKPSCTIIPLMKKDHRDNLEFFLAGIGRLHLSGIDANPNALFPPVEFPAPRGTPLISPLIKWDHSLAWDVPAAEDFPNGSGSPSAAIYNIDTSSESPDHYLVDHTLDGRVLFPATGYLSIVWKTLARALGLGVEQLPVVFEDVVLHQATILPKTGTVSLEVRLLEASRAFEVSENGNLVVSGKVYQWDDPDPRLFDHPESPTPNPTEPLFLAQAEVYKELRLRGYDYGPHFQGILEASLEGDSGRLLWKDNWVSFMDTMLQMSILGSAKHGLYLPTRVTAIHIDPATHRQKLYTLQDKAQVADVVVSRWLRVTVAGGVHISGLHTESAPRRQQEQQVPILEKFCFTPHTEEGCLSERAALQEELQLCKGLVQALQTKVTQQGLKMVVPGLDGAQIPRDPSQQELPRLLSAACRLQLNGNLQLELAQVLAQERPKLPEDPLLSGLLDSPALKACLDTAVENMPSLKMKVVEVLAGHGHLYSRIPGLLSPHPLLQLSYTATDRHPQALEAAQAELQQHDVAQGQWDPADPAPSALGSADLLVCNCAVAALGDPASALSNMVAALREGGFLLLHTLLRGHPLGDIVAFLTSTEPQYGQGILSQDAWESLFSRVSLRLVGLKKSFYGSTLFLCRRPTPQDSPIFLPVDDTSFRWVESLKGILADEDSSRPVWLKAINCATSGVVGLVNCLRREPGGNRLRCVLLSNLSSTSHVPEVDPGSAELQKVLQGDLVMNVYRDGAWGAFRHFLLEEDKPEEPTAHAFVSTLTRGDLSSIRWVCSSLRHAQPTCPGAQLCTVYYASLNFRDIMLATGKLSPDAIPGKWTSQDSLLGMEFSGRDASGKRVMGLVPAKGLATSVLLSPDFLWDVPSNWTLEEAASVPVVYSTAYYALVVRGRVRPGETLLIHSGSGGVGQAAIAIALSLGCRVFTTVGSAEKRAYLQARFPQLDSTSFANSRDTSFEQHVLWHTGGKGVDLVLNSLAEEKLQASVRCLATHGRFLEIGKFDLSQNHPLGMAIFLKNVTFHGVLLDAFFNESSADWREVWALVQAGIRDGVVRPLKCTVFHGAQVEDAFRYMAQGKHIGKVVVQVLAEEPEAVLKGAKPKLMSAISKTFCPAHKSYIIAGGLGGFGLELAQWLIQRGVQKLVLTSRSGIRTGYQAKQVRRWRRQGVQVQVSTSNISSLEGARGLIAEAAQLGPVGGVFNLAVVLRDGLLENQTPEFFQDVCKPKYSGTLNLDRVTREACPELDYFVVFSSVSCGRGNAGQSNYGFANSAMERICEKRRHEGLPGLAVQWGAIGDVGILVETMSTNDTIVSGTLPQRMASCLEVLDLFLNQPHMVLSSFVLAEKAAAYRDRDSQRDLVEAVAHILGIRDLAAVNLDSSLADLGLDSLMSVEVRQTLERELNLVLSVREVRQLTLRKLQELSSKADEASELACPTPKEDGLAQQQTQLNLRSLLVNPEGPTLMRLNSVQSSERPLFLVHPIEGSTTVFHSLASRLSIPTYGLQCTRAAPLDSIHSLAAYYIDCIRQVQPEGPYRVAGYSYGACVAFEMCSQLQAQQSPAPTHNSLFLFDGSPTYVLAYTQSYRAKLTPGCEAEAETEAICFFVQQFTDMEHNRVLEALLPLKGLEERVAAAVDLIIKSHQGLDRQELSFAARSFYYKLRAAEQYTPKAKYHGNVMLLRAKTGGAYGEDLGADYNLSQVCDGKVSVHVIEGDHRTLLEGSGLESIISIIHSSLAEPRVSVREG
T3 sequence (P41145 whole entry): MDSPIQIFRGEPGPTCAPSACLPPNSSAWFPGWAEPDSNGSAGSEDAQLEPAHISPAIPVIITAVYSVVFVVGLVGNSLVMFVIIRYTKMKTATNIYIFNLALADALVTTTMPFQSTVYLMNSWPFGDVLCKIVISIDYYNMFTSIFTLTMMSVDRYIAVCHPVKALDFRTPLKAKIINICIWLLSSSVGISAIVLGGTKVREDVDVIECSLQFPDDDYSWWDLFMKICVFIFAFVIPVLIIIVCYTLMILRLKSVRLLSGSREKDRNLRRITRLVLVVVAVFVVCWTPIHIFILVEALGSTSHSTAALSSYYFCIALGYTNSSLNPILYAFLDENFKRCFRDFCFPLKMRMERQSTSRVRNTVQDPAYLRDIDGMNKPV
Mu-type opioid receptor, sequence (P35372 whole entry): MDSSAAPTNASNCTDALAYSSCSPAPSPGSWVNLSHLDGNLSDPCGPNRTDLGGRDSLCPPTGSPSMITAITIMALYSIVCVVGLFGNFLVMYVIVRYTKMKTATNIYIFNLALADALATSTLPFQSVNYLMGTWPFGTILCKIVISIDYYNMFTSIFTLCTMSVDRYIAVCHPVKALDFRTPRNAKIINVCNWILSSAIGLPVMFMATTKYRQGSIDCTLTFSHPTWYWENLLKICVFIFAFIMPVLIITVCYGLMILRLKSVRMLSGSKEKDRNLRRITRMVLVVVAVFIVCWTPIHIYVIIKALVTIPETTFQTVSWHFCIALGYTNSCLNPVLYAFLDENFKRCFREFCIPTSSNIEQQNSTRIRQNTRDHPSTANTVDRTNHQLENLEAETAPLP
Beta-galactosidase, sequence (Q8VNN2 whole entry): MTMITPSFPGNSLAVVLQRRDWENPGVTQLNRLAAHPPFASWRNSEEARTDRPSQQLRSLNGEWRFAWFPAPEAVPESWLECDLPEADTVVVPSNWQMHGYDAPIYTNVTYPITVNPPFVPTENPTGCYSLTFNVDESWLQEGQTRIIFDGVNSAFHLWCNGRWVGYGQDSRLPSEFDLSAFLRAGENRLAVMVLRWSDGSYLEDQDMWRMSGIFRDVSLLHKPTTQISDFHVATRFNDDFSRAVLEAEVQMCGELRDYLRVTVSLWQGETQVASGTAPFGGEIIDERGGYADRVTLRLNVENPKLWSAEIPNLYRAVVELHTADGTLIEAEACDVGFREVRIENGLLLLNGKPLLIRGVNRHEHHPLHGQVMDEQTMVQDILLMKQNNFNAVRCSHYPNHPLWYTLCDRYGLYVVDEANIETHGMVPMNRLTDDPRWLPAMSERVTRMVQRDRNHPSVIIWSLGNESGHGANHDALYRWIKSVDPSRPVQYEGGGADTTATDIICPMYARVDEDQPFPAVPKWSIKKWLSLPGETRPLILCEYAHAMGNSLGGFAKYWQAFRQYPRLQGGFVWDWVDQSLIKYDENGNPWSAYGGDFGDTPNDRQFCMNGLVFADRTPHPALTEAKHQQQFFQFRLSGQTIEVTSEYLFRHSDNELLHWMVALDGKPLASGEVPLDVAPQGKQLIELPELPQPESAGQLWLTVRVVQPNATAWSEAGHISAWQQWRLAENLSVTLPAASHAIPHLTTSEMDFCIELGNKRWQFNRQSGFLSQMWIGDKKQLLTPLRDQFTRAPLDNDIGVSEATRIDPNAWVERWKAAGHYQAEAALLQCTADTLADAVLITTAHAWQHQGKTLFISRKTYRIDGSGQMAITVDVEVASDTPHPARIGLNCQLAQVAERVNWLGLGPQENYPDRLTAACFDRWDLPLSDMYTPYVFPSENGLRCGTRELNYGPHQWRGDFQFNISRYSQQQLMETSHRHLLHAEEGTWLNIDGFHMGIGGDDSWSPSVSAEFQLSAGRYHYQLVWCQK
Beta Lactamase, sequence (Q932Y6 whole entry): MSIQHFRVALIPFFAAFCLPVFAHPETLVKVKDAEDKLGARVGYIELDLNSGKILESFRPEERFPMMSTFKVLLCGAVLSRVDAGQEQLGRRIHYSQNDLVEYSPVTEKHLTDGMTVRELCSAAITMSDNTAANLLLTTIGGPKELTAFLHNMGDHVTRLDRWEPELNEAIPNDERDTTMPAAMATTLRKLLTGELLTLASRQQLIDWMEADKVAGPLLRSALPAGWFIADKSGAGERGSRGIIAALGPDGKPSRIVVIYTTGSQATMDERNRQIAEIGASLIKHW

With `CC(=O)OCCNc1cc(Sc2nc3ccccc3[nH]2)c2nonc2c1[N+](=O)[O-]` the CC50 [1] was 12.4 µM (active), the EC50 [2] was 2.47 µM (active) and the EC50 (Beta-galactosidase) was > 31.5 µM (inactive). The AC50 [3] was 6.26 µM (active), the EC50 (Mu-type opioid receptor) was > 32 µM (inactive) and the EC50 [4] was 3.66 µM (active). The EC50 [5] was > 32 µM (inactive), the AC50 [6] was 11.5 µM (active) and the CC50 [7] was 13.5 µM (active). For the same compound, the IC50 [8] was > 32 µM (inactive), the IC50 [9] was 5.01 µM (active) and the IC50 [10] was 17.1 µM. The IC50 (cells) was 5.83 µM (active), the CC50 [11] was 19.9 µM (active) and the IC50 (CHO) was 3.06 µM (active). For the same compound, the IC50 (Fatty acid synthase [12]) was 1.75 µM (active), the AC50 [13] was 1.86 µM (active) and the EC50 [14] was 4.64 µM (active). For the same compound, the IC50 (Fatty acid synthase [15]) was 2.59 µM (active), the IC50 [16] was 116 µM (active) and the AC50 [17] was 17.5 µM (active). For the same compound, the IC50 (Beta Lactamase) was 10 µM (inactive) and the EC50 [18] was 4.91 µM (active).
In the case of `C(=N\Nc1cc(N2CCCC2)nc(N2CCCC2)n1)/c1ccccc1`, the IC50 [19] is reported as > 99 µM (inactive), the IC50 [20] is reported as 89.9 µM (active) and the IC50 [21] is reported as 15.1 µM (active). For the same compound, the IC50 (Caspase-3) was > 99 µM (inactive).
